Data from ChEMBL document CHEMBL4130627, “Prodrugs of the Phosphoribosylated Forms of Hydroxypyrazinecarboxamide Pseudobase T-705 and Its De-Fluoro Analogue T-1105 as Potent Influenza Virus Inhibitors” (J Med Chem, 2018).
Calls of active or inactive are those of the source. No cut-off for these calls is given here.

Key:
[1] = Inhibition of Influenza virus A/X-31 RNA dependent RNA polymerase using ApG primer [adenyl (3'-5') guanosine] and [8-3H]GTP after 1 hr by filter-based assay; design: species or system Influenza A virus (A/X-31(H3N2))
[2] = Inhibition of Influenza virus B/Ned/537/05 RNA dependent RNA polymerase using ApG primer [adenyl (3'-5') guanosine] and [8-3H]GTP after 1 hr by filter-based assay
[3] = Half life of the compound in 25 mM phosphate buffe at pH 1.5 to 7.3 by RP-HPLC analysis; assay type: physicochemical; settings: phosphate buffer
MDCK [4] = experiment: Prodrug activation in MDCK cells assessed as T-1105-RDP formation at 500 uM after 2 hrs by RP-HPLC-UV analysis; assay type: cell-based, Canis lupus familiaris; settings: dog
Influenza A virus [5] = experiment: microbe, parasite or virus in culture; settings: MDCK, 72 h
Description: Antiviral activity against Influenza virus A/X-31 infected in MDCK cells assessed as reduction in viral replication at 3 days post infection by microscopic analysis

Influenza B virus [6] = experiment: microbe, parasite or virus in culture; settings: Ned/537/05, MDCK, 72 h
Description: Antiviral activity against Influenza virus B/Ned/537/05 infected in MDCK cells assessed as reduction in viral replication at 3 days post infection by formazan-based MTS assay

Influenza B virus [7] = experiment: microbe, parasite or virus in culture; settings: Ned/537/05, MDCK, 72 h; remark: listed apart in the source
Description: Antiviral activity against Influenza virus B/Ned/537/05 infected in MDCK cells assessed as reduction in viral replication at 3 days post infection by microscopic analysis

[8] = Cytotoxicity against MDCK cells assessed as reduction in cell viability after 3 days by formazan-based MTS assay; design: species or system Canis lupus familiaris; settings: dog
[9] = Cytotoxicity against MDCK cells assessed as change in cell morphology after 3 days by microscopic analysis; assay type: cell-based, Canis lupus familiaris; settings: dog
MDCK [10] = experiment: Prodrug activation in MDCK cells assessed as T-1105-RMP formation at 450 uM up to 4 hrs by RP-HPLC-UV analysis; assay type: cell-based, Canis lupus familiaris; settings: dog
[11] = Cytotoxicity against HGPRT deficient 6-thioguanine-resistant MDCK cells assessed as change in cell morphology after 3 days by microscopic analysis; assay type: cell-based, Canis lupus familiaris; settings: dog
MDCK [12] = experiment: Prodrug activation in MDCK cells assessed as T-1105-RTP formation at 450 uM up to 4 hrs by RP-HPLC-UV analysis; assay type: cell-based, Canis lupus familiaris; settings: dog
MDCK [13] = assay type: cell-based, Canis lupus familiaris; settings: dog, 2 h, 500 µM
[14] = Drug metabolism in MDCK cells assessed as 4-((((((2R,3S,4R,5R)-5-(3-carbamoyl-2-oxopyrazin-1(2H)-yl)-3,4-dihydroxytetrahydrofuran-2-yl)methoxy)(hydroxy)phosphoryloxy)(hydroxy)phosphoryloxy)methyl)phenyl decanoate formation at 450 uM up to 4 hrs by RP-HPLC-UV analysis; assay type: ADME, cell-based, Canis lupus familiaris; settings: dog
Influenza A virus [15] = experiment: microbe, parasite or virus in culture; settings: MDCK, 72 h; remark: listed apart in the source
Description: Antiviral activity against Influenza virus A/X-31 infected in MDCK cells assessed as reduction in viral replication at 3 days post infection by formazan-based MTS assay

Liver carboxylesterase [16] = biological target: T1, Liver carboxylesterase (Sus scrofa, UniProt Q29550); experiment: Drug metabolism assessed as pig liver esterase mediated 4-(((((((2R,3S,4R,5R)-5-(3-carbamoyl-2-oxopyrazin-1(2H)-yl)-3,4-dihydroxytetrahydrofuran-2-yl)methoxy)(hydroxy)phosphoryloxy)(hydroxy)phosphoryloxy)(hydroxy)phosphoryloxy)methyl)phenyl decanoate formation at 450 uM after 1 to 8 hrs by RP-HPLC-UV analysis; assay type: ADME; settings: isolated protein
T1 sequence (Q29550 whole entry): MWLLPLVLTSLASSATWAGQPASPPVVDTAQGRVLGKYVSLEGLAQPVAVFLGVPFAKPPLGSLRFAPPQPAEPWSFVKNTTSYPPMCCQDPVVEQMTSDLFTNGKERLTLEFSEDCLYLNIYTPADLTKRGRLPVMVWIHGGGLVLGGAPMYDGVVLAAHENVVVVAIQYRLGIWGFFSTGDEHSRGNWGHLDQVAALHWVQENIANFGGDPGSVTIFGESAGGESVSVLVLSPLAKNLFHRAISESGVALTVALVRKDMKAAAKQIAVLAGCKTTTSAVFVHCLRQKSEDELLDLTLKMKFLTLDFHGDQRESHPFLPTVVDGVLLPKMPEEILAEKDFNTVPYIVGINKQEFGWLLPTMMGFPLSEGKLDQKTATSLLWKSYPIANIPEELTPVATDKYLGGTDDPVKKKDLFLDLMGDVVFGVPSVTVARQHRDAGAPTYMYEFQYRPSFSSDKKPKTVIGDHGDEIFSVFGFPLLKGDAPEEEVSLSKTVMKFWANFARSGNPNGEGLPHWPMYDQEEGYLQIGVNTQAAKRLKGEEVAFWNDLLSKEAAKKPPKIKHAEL

[17] = Drug metabolism in MDCK cells assessed as T-1105-RDP formation at 450 uM up to 4 hrs by RP-HPLC-UV analysis; assay type: ADME, cell-based, Canis lupus familiaris; settings: dog
MDCK [18] = assay type: cell-based, Canis lupus familiaris; settings: dog, 714 µM
MDCK [19] = experiment: Prodrug activation in MDCK cells assessed as parent compound remaining at 714 uM after 25 hrs by RP-HPLC-UV analysis; assay type: cell-based, Canis lupus familiaris; settings: dog
MDCK [20] = experiment: Prodrug activation in MDCK cells assessed as T-705-RMP formation at 714 uM after 25 hrs by RP-HPLC-UV analysis; assay type: cell-based, Canis lupus familiaris; settings: dog
[21] = Prodrug activation in phosphate buffer at pH 7.3 assessed as metabolite formation after 30 hrs by RP-HPLC chromatogram analysis; assay type: physicochemical; settings: pH 7.3, 30 h
Liver carboxylesterase [22] = biological target: T1, Liver carboxylesterase; experiment: Prodrug activation assessed as pig liver esterase mediated metabolite formation after 30 hrs by RP-HPLC chromatogram analysis; assay type: ADME; settings: isolated protein
Liver carboxylesterase [23] = biological target: T1, Liver carboxylesterase; experiment: Drug metabolism assessed as pig liver esterase mediated 4-((((((2R,3S,4R,5R)-5-(3-carbamoyl-5-fluoro-2-oxopyrazin-1(2H)-yl)-3,4-dihydroxytetrahydrofuran-2-yl)methoxy)(hydroxy)phosphoryloxy)(hydroxy)[…])methyl)phenyl pentanoate formation at 450 uM after 2 hrs by RP-HPLC chromatogram analysis; assay type: ADME; settings: isolated protein
[24] = Stability of the compound in phosphate buffer at pH 7.3 after 30 hrs by RP-HPLC chromatogram analysis; assay type: physicochemical; settings: pH 7.3, 30 h
MDCK [25] = experiment: Prodrug activation in HGPRT deficient MDCK cells assessed as T-1105-RMP formation at 465 uM after 1 to 840 mins by RP-HPLC-UV analysis; assay type: cell-based, Canis lupus familiaris; settings: dog
MDCK [26] = experiment: Prodrug activation in MDCK cells assessed as T-1105-RMP formation at 465 uM after 1 to 840 mins by RP-HPLC-UV analysis; assay type: cell-based, Canis lupus familiaris; settings: dog
Influenza A virus [27] = assay type: functional, organism-based; settings: Influenza A virus (A/X-31(H3N2)); MDCK; 250 uM
Influenza A virus [28] = assay type: functional, organism-based; settings: Influenza A virus (A/X-31(H3N2)); MDCK; 100 uM
Influenza A virus [29] = assay type: functional, organism-based; settings: Influenza A virus (A/X-31(H3N2)); MDCK; 250 uM; remark: listed apart in the source
[30] = Prodrug activation in phosphate buffer at pH 7.3 assessed as half life for T-1105-RMP formation up to 332 hrs by RP-HPLC-UV analysis; assay type: physicochemical; settings: pH 7.3, 332 h

Structure (SMILES) | IC50 [1] [µM] | EC50 (Influenza A virus [5]) [µM] | EC50 (Influenza B virus [6]) [µM] | EC50 (Influenza B virus [7]) [µM] | CC50 at 72 h [8] [µM] | MCC at 72 h [9] [µM] | MCC at 72 h [11] [µM] | EC50 (Influenza A virus [15]) [µM] | also measured
NC(=O)c1nc(F)cn([C@@H]2O[C@H](COP(=O)(O)OP(=O)(O)OP(=O)(O)O)[C@@H](O)[C@H]2O)c1=O | 2.7 |  |  |  |  |  |  |  | IC50 [2]: 2.7 µM
Cc1cccc2c1OP(=O)(OC[C@@H]1C=C[C@H](n3cnc4c(=O)[nH]cnc43)O1)OC2 (some centres not stated) |  |  |  |  |  |  |  |  | half-life [3]: 10 to 45 h
CCCCCCCCCC(=O)Oc1ccc(COP(=O)(OCc2ccc(OC(=O)CCCCCCCCC)cc2)OP(=O)(O)OP(=O)(O)OC[C@H]2O[C@@H](n3ccnc(C(N)=O)c3=O)[C@H](O)[C@@H]2O)cc1.CCN(CC)CC.CCN(CC)CC | 49 to 126 | 2.6 | 2.4 | 2.6 | 30 | 16 | 13 | 3.6 | Drug metabolism (MDCK [4]): Metabolite_Detected; Drug metabolism (MDCK [10]): Metabolite_Detected; Drug metabolism (MDCK [12]): Metabolite_Notdetected; Drug metabolism (MDCK [13]): Metabolite_Detected; IC50 [2]: 49 to 126 µM; Drug metabolism [14]: Metabolite_Detected; Drug metabolism (Liver carboxylesterase [16]): Metabolite_Detected; Drug metabolism [17]: Metabolite_Detected
NC(=O)c1nc(F)c[nH]c1=O |  |  |  |  | > 250 | > 250 | > 250 |  | Drug metabolism (MDCK [18]): Metabolite_Notdetected; Stability (MDCK [19]): 65%; Drug metabolism (MDCK [20]): Metabolite_Detected
CCCCCCCCCCCCCCC(=O)Oc1ccc(COP(=O)(OCc2ccc(OC(=O)CCCC)cc2)OP(=O)(O)OC[C@H]2O[C@@H](n3cc(F)nc(C(N)=O)c3=O)[C@H](O)[C@@H]2O)cc1.CCN(CC)CC (some centres not stated) |  | 5.4 | 3.5 | 7.2 | 35 | 21 | 16 | 10 | Drug metabolism [21]: Metabolite_Notdetected; Drug metabolism (Liver carboxylesterase [22]): Metabolite_Notdetected; Drug metabolism (Liver carboxylesterase [23]): Metabolite_Detected; Stability [24]: Unstable
NC(=O)c1nc(Br)cn([C@@H]2O[C@H](CO)[C@@H](O)[C@H]2O)c1=O |  | > 250 | > 250 | > 250 | > 250 | > 250 | > 250 | > 250 | 
CCCCCCCCCCCCCCC(=O)Oc1ccc(COP(=O)(OCc2ccc(OC(=O)CCCC)cc2)OP(=O)(O)OC[C@H]2O[C@@H](n3ccnc(C(N)=O)c3=O)[C@H](O)[C@@H]2O)cc1.CCN(CC)CC (some centres not stated) | 49 to 126 | 1.5 | 0.58 | 0.67 | 31 | 21 | 16 | 1.6 | Drug metabolism (MDCK [4]): Metabolite_Detected; Drug metabolism (MDCK [10]): Metabolite_Detected; Drug metabolism (MDCK [12]): Metabolite_Notdetected; Drug metabolism (MDCK [13]): Metabolite_Detected; IC50 [2]: 49 to 126 µM; Drug metabolism [14]: Metabolite_Detected; Drug metabolism [17]: Metabolite_Detected
CC(=O)O[C@@H]1[C@H](OC(C)=O)[C@@H](COP2(=O)OCc3cccc(C)c3O2)O[C@H]1n1ccnc(C(N)=O)c1=O (some centres not stated) |  | > 400 | 128 | > 400 | > 400 | 400 | 400 | > 400 | 
NC(=O)c1nccn([C@@H]2O[C@H](COP(=O)(O)OP(=O)(O)OP(=O)(O)O)[C@@H](O)[C@H]2O)c1=O | 0.48 to 9.8 |  |  |  |  |  |  |  | Drug metabolism (MDCK [25]): Metabolite_Detected; IC50 [2]: 0.69 µM; Drug metabolism (MDCK [26]): Metabolite_Detected
NC(=O)c1nc(F)cnc1O |  | 24 | 8.3 | 9 |  |  |  | 26 | inhibition (Influenza A virus [27]): inactive; inhibition (Influenza A virus [28]): Active; inhibition (Influenza A virus [29]): Active
COc1ccc2c(c1)COP(=O)(OC[C@@H]1C=C[C@H](n3cnc4c(N)ncnc43)O1)O2 (some centres not stated) |  |  |  |  |  |  |  |  | half-life [3]: 10 to 45 h
Nc1ncnc2c1ncn2[C@H]1CC[C@@H](COP2(=O)OCc3ccccc3O2)O1 (some centres not stated) |  |  |  |  |  |  |  |  | half-life [3]: 10 to 45 h
CC(C)(C)c1cc2c(c(C(C)(C)C)c1)OP(=O)(OC[C@H]1O[C@@H](n3ccnc(C(N)=O)c3=O)[C@H](O)[C@@H]1O)OC2 (some centres not stated) |  |  |  |  |  |  |  |  | t1/2 [30]: 16 h
NC(=O)c1ncn([C@@H]2O[C@H](CO)[C@@H](O)[C@H]2O)n1 [RIBAVIRIN] |  |  | 4.5 | 5.9 | > 100 | 59 | 35 | 13 | 
Cc1cccc2c1OP(=O)(OC[C@H]1O[C@@H](n3ccnc(C(N)=O)c3=O)[C@H](O)[C@@H]1O)OC2 (some centres not stated) |  | 280 | 135 | 176 | > 400 | > 400 | > 400 | > 400 | t1/2 [30]: 1.2 h
Nc1nc2c(ncn2[C@@H]2O[C@H](COP(=O)(O)OP(=O)(O)OP(=O)(O)O)[C@@H](O)[C@H]2F)c(=O)[nH]1 | 2.5 |  |  |  |  |  |  |  | IC50 [2]: 4.4 µM
CCCCCCCCCCCCCCC(=O)Oc1ccc(COP(=O)(OCc2ccc(OC(=O)CCCC)cc2)OP(=O)(O)OP(=O)(O)OC[C@H]2O[C@@H](n3ccnc(C(N)=O)c3=O)[C@H](O)[C@@H]2O)cc1.CCN(CC)CC.CCN(CC)CC (some centres not stated) |  | 6 | 6 | 9.9 | 38 | 16 | 16 | 6.7 | Drug metabolism (MDCK [4]): Metabolite_Detected; Drug metabolism (MDCK [10]): Metabolite_Detected; Drug metabolism (MDCK [12]): Metabolite_Notdetected; Drug metabolism (MDCK [13]): Metabolite_Detected; Drug metabolism [14]: Metabolite_Detected; Drug metabolism [17]: Metabolite_Detected
NC(=O)c1nccn([C@@H]2O[C@H](CO)[C@@H](O)[C@H]2O)c1=O |  | 58 | 19 | 24 | > 250 | > 250 | > 250 | 52 | 
Cc1cccc2c1OP(=O)(OC[C@@H]1CC[C@H](n3cnc4c(=O)[nH]cnc43)O1)OC2 (some centres not stated) |  |  |  |  |  |  |  |  | half-life [3]: 10 to 45 h
Nc1nc2c(ncn2[C@@H]2O[C@H](COP(=O)(O)OP(=O)(O)OP(=O)(O)O)C[C@H]2O)c(=O)[nH]1 | 16 |  |  |  |  |  |  |  | 
